Assays:
Assay type in all cases: in vivo
SOLNI = test: Example B1 herbicidal action post-emergence, SOLNI; conditions: sprayed after 8 days cultivation, evaluated after 13 days, scores from 10 to 0 (10=total damage to plant; 0=no damage to plant)
Description: (§1) Seeds of a variety of test species were sown in standard soil in pots. After 8 days cultivation (post-emergence) under controlled conditions in a glasshouse (at 24/16° C., day/night; 14 hours light; 65% humidity), the plants were sprayed with an aqueous spray solution derived from the formulation of the technical active ingredient in acetone/water (50:50) solution containing 0.5% Tween 20 (polyoxyethelyene sorbitan monolaurate, CAS RN 9005-64-5). The test plants were then grown under controlled conditions in a glasshouse (at 24/16° C., day/night; 14 hours light; 65% humidity) and watered twice daily. After 13 days, the test was evaluated and the assessed scores, from 10 to 0, are tabulated in Table B1 (10=total damage to plant; 0=no damage to plant).

AMARE = test: Example B1 herbicidal action post-emergence, AMARE; conditions: sprayed after 8 days cultivation, evaluated after 13 days, scores from 10 to 0 (10=total damage to plant; 0=no damage to plant)
Description: as §1

SETFA = test: Example B1 herbicidal action post-emergence, SETFA; conditions: sprayed after 8 days cultivation, evaluated after 13 days, scores from 10 to 0 (10=total damage to plant; 0=no damage to plant)
Description: as §1

ECHCG = test: Example B1 herbicidal action post-emergence, ECHCG; conditions: sprayed after 8 days cultivation, evaluated after 13 days, scores from 10 to 0 (10=total damage to plant; 0=no damage to plant)
Description: as §1

IPOHE = test: Example B1 herbicidal action post-emergence, IPOHE; conditions: sprayed after 8 days cultivation, evaluated after 13 days, scores from 10 to 0 (10=total damage to plant; 0=no damage to plant)
Description: as §1

[1] = tested on: crop and representative weed species; test: Example B2 herbicidal action post-emergence (Table B2); conditions: application post-emergence, rate 500 g/ha, evaluated after 15 days, score 10 to 0; for herbicidal damage score AMARE (10=total damage to plant; 0=no damage to plant): AMARE = Amaranthus retroflexus; for herbicidal damage score ECHCG (10=total damage to plant; 0=no damage to plant): ECHCG = Echinochloa crus-galli; for herbicidal damage score IPOHE (10=total damage to plant; 0=no damage to plant): IPOHE = Ipomea hederaceae; for herbicidal damage score SETFA (10=total damage to plant; 0=no damage to plant): SETFA = Setaria faberi
Description: Seeds of crop and representative weed species were sown in standard soil in pots. After cultivation for 14 days under controlled conditions in a glasshouse (at 22/16° C., day/night; 16 hours light; 65% humidity), the plants were sprayed. The spray solution was prepared by dissolving the technical active ingredient in acetone containing 10.56 wt % Emulsogen EL, 42.22 wt % N-methylpyrrolidone and 2.22 wt % DPG-monoethyl ether to give a 5% stock solution. This was then diluted with water containing 0.2% (v/v) of the adjuvant X-77 to give the desired treatment concentration.
The test plants were then grown on under controlled conditions in a glasshouse (at 22/16° C., day/night; 16 hours light; 65% humidity) and watered twice daily. After 15 days the test was evaluated and the assessed scores, from 10 to 0, are tabulated in Table B2 (10=total damage to plant; 0=no damage to plant).

SMILES	assessed score, application post-emergence, SOLNI (SOLNI; Rate 1000 g/ha)	assessed score, application post-emergence, AMARE (AMARE; Rate 1000 g/ha)	assessed score, application post-emergence, SETFA (SETFA; Rate 1000 g/ha)	assessed score, application post-emergence, ECHCG (ECHCG; Rate 1000 g/ha)	assessed score, application post-emergence, IPOHE (IPOHE; Rate 1000 g/ha)	herbicidal damage score AMARE (10=total damage to plant; 0=no damage to plant) [1]	herbicidal damage score ECHCG (10=total damage to plant; 0=no damage to plant) [1]	herbicidal damage score IPOHE (10=total damage to plant; 0=no damage to plant) [1]	herbicidal damage score SETFA (10=total damage to plant; 0=no damage to plant) [1]	assessed score, application post-emergence, SOLNI (SOLNI; Rate 250 g/ha)	assessed score, application post-emergence, AMARE (AMARE; Rate 250 g/ha)	assessed score, application post-emergence, SETFA (SETFA; Rate 250 g/ha)	assessed score, application post-emergence, ECHCG (ECHCG; Rate 250 g/ha)	assessed score, application post-emergence, IPOHE (IPOHE; Rate 250 g/ha)
CCc1cc(-c2ccc(Cl)cc2Cl)ccc1C1=C(O)c2nccnc2CS1(=O)=O [Compound C24]	6	10	10	7	3	–	–	–	–	–	–	–	–	–
CCC1c2nccnc2C(O)=C(c2c(Cl)cccc2C(F)(F)F)S1(=O)=O (stereo not shown) [Compound E1, 7-(2-chloro-6-trifluoromethyl-phenyl)-5-ethyl-6,6-dioxo-5,6-dihydro-6-thia-1,4-diaza-naphthalen-8-ol]	9	9	8	7	7	–	–	–	–	–	–	–	–	–
C#CCC1c2nccnc2C(O)=C(c2c(F)ccc(Br)c2Cl)S1(=O)=O (stereo not shown) [Compound E8]	–	–	–	–	–	8	6	9	6	–	–	–	–	–
O=S1(=O)C(c2c(F)ccc(Br)c2Cl)=C(O)c2nccnc2C1CC(F)F (stereo not shown) [Compound E9]	9	10	5	3	8	–	–	–	–	–	–	–	–	–
CCC1c2nccnc2C(O)=C(c2c(F)ccc(Br)c2Cl)S1(=O)=O (stereo not shown) [Compound E10]	–	–	–	–	–	–	–	–	–	7	7	7	4	8
CC1c2nccnc2C(O)=C(c2c(F)ccc(Br)c2Cl)S1(=O)=O (stereo not shown) [Compound E11]	10	8	8	8	9	–	–	–	–	–	–	–	–	–
CCC1c2nccnc2C(O)=C(c2ccc(Br)cc2C(F)(F)F)S1(=O)=O (stereo not shown) [Compound E14]	10	9	6	7	7	–	–	–	–	–	–	–	–	–
C#CCC1c2nccnc2C(O)=C(c2c(C)cc(C)cc2C)S1(=O)=O (stereo not shown) [Compound E16]	8	5	2	2	5	–	–	–	–	–	–	–	–	–
Cc1cc(C)c(C2=C(O)c3nccnc3C(CC(F)F)S2(=O)=O)c(C)c1 (stereo not shown) [Compound E17]	7	10	10	10	7	–	–	–	–	–	–	–	–	–
Cc1cc(C)c(C2=C(O)c3nccnc3C(C)S2(=O)=O)c(C)c1 (stereo not shown) [Compound E19]	8	3	5	5	7	–	–	–	–	–	–	–	–	–
C=CCC1c2nccnc2C(O)=C(c2c(F)ccc(Br)c2Cl)S1(=O)=O (stereo not shown) [Compound E20]	–	–	–	–	–	7	2	7	4	–	–	–	–	–
CC#CCC1c2nccnc2C(O)=C(c2c(F)ccc(Br)c2Cl)S1(=O)=O (stereo not shown) [Compound E21]	9	6	4	7	8	–	–	–	–	–	–	–	–	–
O=S1(=O)C(c2c(F)ccc(Br)c2Cl)=C(O)c2nccnc2C1Cc1ccccc1 (stereo not shown) [Compound E23]	8	6	4	8	6	–	–	–	–	–	–	–	–	–
O=S1(=O)C(c2c(F)ccc(Br)c2Cl)=C(O)c2nccnc2C1Cc1ccc(Cl)s1 (stereo not shown) [Compound E24]	7	6	0	0	5	–	–	–	–	–	–	–	–	–
Cc1cc(C)c(C2=C(O)c3nccnc3C(C)(C)S2(=O)=O)c(C)c1 [Compound F1, 5,5-dimethyl-6,6-dioxo-7-(2,4,6-trimethyl-phenyl)-5,6-dihydro-6-thia-1,4-diaza-naphthalen-8-ol]	10	10	8	8	8	–	–	–	–	–	–	–	–	–
CC1(C)c2nccnc2C(O)=C(c2c(F)ccc(Br)c2Cl)S1(=O)=O [Compound F2]	10	10	9	8	9	–	–	–	–	–	–	–	–	–
O=S1(=O)C(c2c(Cl)cccc2C(F)(F)F)=C(O)c2nccnc2C12CC2 [Compound F4]	9	9	8	6	7	–	–	–	–	–	–	–	–	–
CC1(C)c2nccnc2C(O)=C(c2cc(Cl)ccc2C(F)(F)F)S1(=O)=O [Compound F5]	10	10	6	8	9	–	–	–	–	–	–	–	–	–
CC1(C)c2nccnc2C(O)=C(c2ccc(Br)cc2C(F)(F)F)S1(=O)=O [Compound F6]	–	–	–	–	–	–	–	–	–	9	9	8	9	8
O=S1(=O)C(c2c(F)ccc(Br)c2Cl)=C(O)c2nccnc2C12CCC2 [Compound F7]	5	4	1	1	6	–	–	–	–	–	–	–	–	–
CC1(C)c2nccnc2C(O)=C(c2c(Cl)cccc2C(F)(F)F)S1(=O)=O [Compound F9]	8	9	8	8	9	–	–	–	–	–	–	–	–	–
O=S1(=O)C(c2cc(Cl)ccc2C(F)(F)F)=C(O)c2nccnc2C12CC2 [Compound F11, 7-(5-chloro-2-trifluoromethyl-phenyl)-5,5-cyclopropyl-6,6-dioxo-5,6-dihydro-6-thia-1,4-diaza-naphthalen-8-ol]	7	6	2	3	7	–	–	–	–	–	–	–	–	–
CCOCOC1=C(c2cc(Cl)ccc2C(F)(F)F)S(=O)(=O)Cc2nccnc21 [Compound X1, 7-(5-chloro-2-trifluoromethyl-phenyl)-8-ethoxymethoxy-5H-6-thia-1,4-diaza-naphthalene 6,6-dioxide]	8	6	6	2	7	–	–	–	–	–	–	–	–	–
CC(C)C(=O)OC1=C(c2c(F)ccc(Br)c2Cl)S(=O)(=O)Cc2nccnc21 [Compound X2, isobutyric acid 7-(3-bromo-2-chloro-6-fluoro-phenyl)-6,6-dioxo-5,6-dihydro-6-thia-1,4-diaza-naphthalen-8-yl ester]	10	10	8	8	8	–	–	–	–	–	–	–	–	–
